# Reference: patent EP4685143A1 (Vivozon,Inc., priority 2023, dated 2024)
# pIC50: −log10 of the molar value.
# Biological target: T1, human HDAC6 enzyme (Homo sapiens, UniProt Q9UBN7)
# T1 sequence (Q9UBN7 1-1215): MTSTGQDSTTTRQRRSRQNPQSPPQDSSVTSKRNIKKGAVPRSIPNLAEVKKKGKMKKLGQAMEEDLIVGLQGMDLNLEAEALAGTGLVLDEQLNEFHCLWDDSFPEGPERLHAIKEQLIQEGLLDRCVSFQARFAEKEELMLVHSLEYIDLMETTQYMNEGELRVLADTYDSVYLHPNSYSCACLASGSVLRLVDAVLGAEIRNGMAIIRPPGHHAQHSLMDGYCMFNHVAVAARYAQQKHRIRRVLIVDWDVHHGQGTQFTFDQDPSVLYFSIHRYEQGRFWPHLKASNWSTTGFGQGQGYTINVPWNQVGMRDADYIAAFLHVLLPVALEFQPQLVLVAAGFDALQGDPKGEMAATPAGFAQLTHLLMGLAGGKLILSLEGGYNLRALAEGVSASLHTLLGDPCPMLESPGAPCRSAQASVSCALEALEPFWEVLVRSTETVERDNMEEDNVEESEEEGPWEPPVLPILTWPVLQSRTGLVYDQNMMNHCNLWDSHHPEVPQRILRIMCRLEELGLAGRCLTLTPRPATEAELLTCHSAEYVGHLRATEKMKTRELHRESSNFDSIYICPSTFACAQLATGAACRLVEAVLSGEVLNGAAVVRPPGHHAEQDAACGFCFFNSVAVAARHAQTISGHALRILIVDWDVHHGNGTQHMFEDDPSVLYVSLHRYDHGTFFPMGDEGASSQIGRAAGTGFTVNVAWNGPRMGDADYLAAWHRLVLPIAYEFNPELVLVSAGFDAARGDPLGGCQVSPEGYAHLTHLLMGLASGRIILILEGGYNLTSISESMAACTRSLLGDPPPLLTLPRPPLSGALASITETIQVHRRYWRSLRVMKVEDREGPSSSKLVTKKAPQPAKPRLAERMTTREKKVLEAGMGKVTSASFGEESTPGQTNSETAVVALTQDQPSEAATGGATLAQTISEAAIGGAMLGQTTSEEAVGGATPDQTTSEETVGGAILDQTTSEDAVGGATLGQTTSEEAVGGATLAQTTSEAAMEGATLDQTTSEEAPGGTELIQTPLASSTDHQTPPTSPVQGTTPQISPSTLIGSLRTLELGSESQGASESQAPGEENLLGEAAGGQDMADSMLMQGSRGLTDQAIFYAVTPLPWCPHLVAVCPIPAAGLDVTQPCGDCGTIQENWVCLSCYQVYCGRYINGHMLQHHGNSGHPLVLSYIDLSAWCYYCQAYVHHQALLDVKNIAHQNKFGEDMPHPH
# Test: Fluorescence-based enzyme activity assay
# Assay type: biochemical
# Details: substrate with fluorescent peptide of p53 residues 379-382, 30°C for 1 hour
# Protocol: Experimental Example 1: Fluorescence-based enzyme activity assay
# In order to measure the inhibitory effect of the compounds on the activity of histone deacetylase 6 (HDAC6), an enzyme activity assay was performed to evaluate the enzyme activity by reacting the human HDAC6 enzyme with a substrate to which a fluorescent peptide of p53 residues 379-382 was attached. The test compounds were dissolved in 100% DMSO at a concentration of 10 mM to prepare a stock solution. A starting concentration of 30 µM was prepared from the stock solution, followed by 1/3 serial dilutions to prepare the test buffer solution. Trichostatin A (TSA)-which is the reference compound used to confirm the validity of the experiment-was serially diluted by 1/3 with the test buffer solution, starting from the highest concentration of 1 µM. To react the test compounds and TSA prepared in the test buffer with the HDAC6 enzyme, they were dispensed into a 96-well black plate and spin-down of the plate was performed. Then, the reaction was carried out at room temperature for 10 minutes. After 10 minutes, the substrate was dispensed, and the plate was sealed. The reaction was carried out at 30°C for 1 hour under light-blocking conditions. Fluorescence values were measured using a plate reader (wavelength: excitation/emission = 360/460 nm). The fluorescence measurements were normalized to the HDAC6 enzyme-treated group as 100% and the untreated group as 0%, respectively. […]
row,SMILES,pIC50
1,"O=c1cc(-c2nnc(C(F)F)o2)ccn1CC#Cc1ccccc1 [Example 1, 4-(5-(difluoromethyl)-1,3,4-oxadiazol-2-yl)-1-(3-phenylprop-2-yn-1-yl)pyridin-2(1H)-one]",> 7.00
2,"O=c1cc(-c2noc(C(F)(F)F)n2)ccn1CC#Cc1ccccc1 [Example 2, 1-(3-phenylprop-2-yn-1-yl)-4-(5-(trifluoromethyl)-1,2,4-oxadiazol-3-yl)pyridin-2(1H)-one]",6.00 to 6.30
3,"O=c1cc(-c2noc(C(F)(F)F)n2)ccn1CC#Cc1ccncc1 [Example 3, 1-(3-(pyridin-4-yl)prop-2-yn-1-yl)-4-(5-(trifluoromethyl)-1,2,4-oxadiazol-3-yl)pyridin-2(1H)-one]",6.30 to 7.00
4,"O=c1cc(-c2noc(C(F)(F)F)n2)ccn1CC#Cc1cccnc1 [Example 4, 1-(3-(pyridin-3-yl)prop-2-yn-1-yl)-4-(5-(trifluoromethyl)-1,2,4-oxadiazol-3-yl)pyridin-2(1H)-one]",6.30 to 7.00
5,"O=c1cc(-c2noc(C(F)(F)F)n2)ccn1CC#Cc1ccccn1 [Example 5, 1-(3-(pyridin-2-yl)prop-2-yn-1-yl)-4-(5-(trifluoromethyl)-1,2,4-oxadiazol-3-yl)pyridin-2(1H)-one]",6.30 to 7.00
6,"O=c1cc(-c2noc(C(F)(F)F)n2)ccn1CC#Cc1ccccc1F [Example 6, 1-(3-(2-fluorophenyl)prop-2-yn-1-yl)-4-(5-(trifluoromethyl)-1,2,4-oxadiazol-3-yl)pyridin-2(1H)-one]",6.00 to 6.30
7,"O=c1cc(-c2nnc(C(F)F)o2)ccn1CC#Cc1ccncc1 [Example 8, 4-(5-(difluoromethyl)-1,3,4-oxadiazol-2-yl)-1-(3-(pyridin-4-yl)prop-2-yn-1-yl)pyridin-2(1H)-one]",> 7.00
8,"O=c1cc(-c2nnc(C(F)F)o2)ccn1CC#Cc1cccnc1 [Example 9, 4-(5-(difluoromethyl)-1,3,4-oxadiazol-2-yl)-1-(3-(pyridin-3-yl)prop-2-yn-1-yl)pyridin-2(1H)-one]",> 7.00
9,"O=c1cc(-c2nnc(C(F)F)o2)ccn1CC#Cc1ccccn1 [Example 10, 4-(5-(difluoromethyl)-1,3,4-oxadiazol-2-yl)-1-(3-(pyridin-2-yl)prop-2-yn-1-yl)pyridin-2(1H)-one]",> 7.00
10,"O=c1cc(-c2nnc(C(F)F)o2)ccn1CC#Cc1ccc(F)cc1 [Example 11, 4-(5-(difluoromethyl)-1,3,4-oxadiazol-2-yl)-1-(3-(4-fluorophenyl)prop-2-yn-1-yl)pyridin-2(1H)-one]",> 7.00
11,Cc1nc2ccc(C#CCOc3cc(-c4nnc(C(F)F)o4)ccn3)cc2s1 [Example 41],6.00 to 6.30

# Next, values leading:
row,pIC50,SMILES
1,> 7.00,"O=c1cc(-c2nnc(C(F)F)o2)ccn1CC#Cc1cccc(F)c1 [Example 12, 4-(5-(difluoromethyl)-1,3,4-oxadiazol-2-yl)-1-(3-(3-fluorophenyl)prop-2-yn-1-yl)pyridin-2(1H)-one]"
2,> 7.00,"O=c1cc(-c2nnc(C(F)F)o2)ccn1CC#Cc1ccccc1F [Example 13, 4-(5-(difluoromethyl)-1,3,4-oxadiazol-2-yl)-1-(3-(2-fluorophenyl)prop-2-yn-1-yl)pyridin-2(1H)-one]"
3,> 7.00,"O=c1cc(-c2nnc(C(F)F)o2)ccn1CC#Cc1ccc(Cl)cc1 [Example 14, 1-(3-(4-chlorophenyl)prop-2-yn-1-yl)-4-(5-(difluoromethyl)-1,3,4-oxadiazol-2-yl)pyridin-2(1H)-one]"
4,> 7.00,"O=c1cc(-c2nnc(C(F)F)o2)ccn1CC#Cc1ccccc1Cl [Example 16, 1-(3-(2-chlorophenyl)prop-2-yn-1-yl)-4-(5-(difluoromethyl)-1,3,4-oxadiazol-2-yl)pyridin-2(1H)-one]"
5,> 7.00,"COc1cccc(C#CCn2ccc(-c3nnc(C(F)F)o3)cc2=O)c1 [Example 21, 4-(5-(difluoromethyl)-1,3,4-oxadiazol-2-yl)-1-(3-(3-methoxyphenyl)prop-2-yn-1-yl)pyridin-2(1H)-one]"
6,> 7.00,"O=c1cc(-c2nnc(C(F)F)o2)ccn1CC#Cc1cccc(Cl)n1 [Example 22, 1-(3-(6-chloropyridin-2-yl)prop-2-yn-1-yl)-4-(5-(difluoromethyl)-1,3,4-oxadiazol-2-yl)pyridin-2(1H)-one]"
7,> 7.00,"Cc1cncc(C#CCn2ccc(-c3nnc(C(F)F)o3)cc2=O)c1 [Example 29, 4-(5-(difluoromethyl)-1,3,4-oxadiazol-2-yl)-1-(3-(5-methylpyridin-3-yl)prop-2-yn-1-yl)pyridin-2(1H)-one]"
8,> 7.00,"CS(=O)(=O)c1cccc(C#CCn2ccc(-c3nnc(C(F)F)o3)cc2=O)c1 [Example 32, 4-(5-(difluoromethyl)-1,3,4-oxadiazol-2-yl)-1-(3-(3-(methylsulfonyl)phenyl)prop-2-yn-1-yl)pyridin-2(1H)-one]"
9,> 7.00,"O=c1cc(-c2nnc(C(F)F)o2)ccn1CC#Cc1cccc(Cl)c1F [Example 33, 1-(3-(3-chloro-2-fluorophenyl)prop-2-yn-1-yl)-4-(5-(difluoromethyl)-1,3,4-oxadiazol-2-yl)pyridin-2(1H)-one]"
10,> 7.00,"O=c1cc(-c2nnc(C(F)F)o2)ccn1CC#Cc1ccc(F)c(Cl)c1 [Example 34, 1-(3-(3-chloro-4-fluorophenyl)prop-2-yn-1-yl)-4-(5-(difluoromethyl)-1,3,4-oxadiazol-2-yl)pyridin-2(1H)-one]"
11,> 7.00,"O=c1cc(-c2nnc(C(F)F)o2)ccn1CC#Cc1cc(F)cc(Cl)c1 [Example 35, 1-(3-(3-chloro-5-fluorophenyl)prop-2-yn-1-yl)-4-(5-(difluoromethyl)-1,3,4-oxadiazol-2-yl)pyridin-2(1H)-one]"
12,6.30 to 7.00,"O=c1cc(-c2nnc(C(F)F)o2)ccn1CC#Cc1ccc2scnc2c1 [Example 40, 1-(3-(benzo[d]thiazol-5-yl)prop-2-yn-1-yl)-4-(5-(difluoromethyl)-1,3,4-oxadiazol-2-yl)pyridin-2(1H)-one]"
13,> 7.00,"Cc1ncc(C#CCn2ccc(-c3nnc(C(F)F)o3)cc2=O)[nH]1 [Example 42, 4-(5-(difluoromethyl)-1,3,4-oxadiazol-2-yl)-1-(3-(2-methyl-1H-imidazol-5-yl)prop-2-yn-1-yl)pyridin-2(1H)-one]"
14,> 7.00,"O=c1cc(-c2nnc(C(F)F)o2)ccn1CC#Cc1ccsc1 [Example 43, 4-(5-(difluoromethyl)-1,3,4-oxadiazol-2-yl)-1-(3-(thiophen-3-yl)prop-2-yn-1-yl)pyridin-2(1H)-one]"
